Experimental data reported in patent US8809372B2, “Pyridine derivatives” (Endo Pharmaceuticals, Inc., priority 2011, dated 2014).

Biological target: T1, human CYP17 in H295R adrenocortical carcinoma cells (Homo sapiens, UniProt P05093)
T1 construct: H295R Adrenocortical carcinoma cells [NCI-H295A, ATCC Number CRL-2128, American Type Culture Collection; host or cells: H295R adrenocortical carcinoma cells
T1 sequence (P05093 1-508): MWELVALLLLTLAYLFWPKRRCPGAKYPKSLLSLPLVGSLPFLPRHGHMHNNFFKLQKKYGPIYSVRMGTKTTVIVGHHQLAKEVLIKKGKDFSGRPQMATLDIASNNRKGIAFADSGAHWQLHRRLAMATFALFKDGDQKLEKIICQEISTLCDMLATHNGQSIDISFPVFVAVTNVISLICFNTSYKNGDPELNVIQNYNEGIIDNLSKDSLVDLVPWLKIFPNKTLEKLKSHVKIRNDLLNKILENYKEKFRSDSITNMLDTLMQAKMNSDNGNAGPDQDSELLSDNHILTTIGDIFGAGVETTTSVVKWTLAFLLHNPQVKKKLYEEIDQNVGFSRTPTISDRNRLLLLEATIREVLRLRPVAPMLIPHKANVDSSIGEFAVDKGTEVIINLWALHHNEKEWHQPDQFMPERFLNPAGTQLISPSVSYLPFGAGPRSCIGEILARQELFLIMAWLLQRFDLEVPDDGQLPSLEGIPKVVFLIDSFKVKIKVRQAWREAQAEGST
Assay: Cell-based human CYP17 inhibition assay, H295R cells
Conditions: 16 hours, read-out: CYP17 (human H295R adrenal cells)
Outline: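 H295R cells or LNCaP cells stably transfected with full-length human CYP17A1 (30,000/well) incubated 16 h at 37 °C with ³H-17α-hydroxypregnenolone and compound (top 10 μM, 3-fold dilutions, up to 10 concentrations). Medium chloroform-extracted and charcoal-treated; aqueous-phase radioactivity counted by scintillation.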

Question: How did the IC50 turn out when `COc1ccc(-c2ccc(C(C)(O)c3ccncc3)nc2)cc1` (racemic) [Example 1, 1-(5-(4-Methoxyphenyl)pyridin-2-yl)-1-(pyridin-4-yl)ethanol] was run?
Answer: Its IC50 is 50 to 200 nM.

Question: Which IC50 does the source give for `CC(O)(c1ccncc1)c1cnc(-c2ccc(F)cc2)s1` (racemic) [Example 7, 1-(2-(4-Fluorophenyl)thiazol-5-yl)-1-(pyridin-4-yl)ethanol] here?
Answer: The IC50 was 50 to 200 nM.

Question: With `COc1ccc(-c2ccc(C(C)(O)c3ccncc3)nc2)cc1` (single isomer, unassigned) [Example 2, 1-(5-(4-methoxyphenyl)-pyridin-2-yl)-1-(pyridin-4-yl)ethanol] as the molecule, how does the IC50 read?
Answer: The IC50 was 50 to 200 nM.

Question: With `COc1ccc(-c2ccc(C(C)(O)c3ccncc3)nc2)cc1` (single isomer, unassigned) [Example 3, 1-(5-(4-methoxyphenyl)-pyridin-2-yl)-1-(pyridin-4-yl)ethanol] as the molecule, how does the IC50 read?
Answer: Its IC50 is 201 to 10000 nM.

Question: How did the IC50 turn out when `CC(O)(c1ccncc1)c1cnc(-c2ccc(F)cc2)s1` (single isomer, unassigned) [Example 8, 1-(2-(4-fluorophenyl)thiazol-5-yl)-1-(pyridin-4-yl)ethanol] was run?
Answer: Its IC50 is 201 to 10000 nM.

Question: `CC(O)(c1ccncc1)c1cnc(-c2ccc(F)cc2)s1` (single isomer, unassigned) [Example 9, 1-(2-(4-fluorophenyl)thiazol-5-yl)-1-(pyridin-4-yl)ethanol] was tested. Which IC50 did it give?
Answer: Its IC50 is less than 50 nM.

Question: `CC(O)(c1ccncc1)c1nc(-c2ccc(F)cc2)no1` (single isomer, unassigned; (+)) [Example 36, (+)-1-(3-(4-fluoro-phenyl)-1,2,4-oxadiazol-5-yl)-1-(pyridin-4-yl)ethanol] was tested. Which IC50 did it give?
Answer: The IC50 was less than 50 nM.

Question: With `Cn1cc(-c2ccc(C(C)(O)c3ccncc3)s2)ccc1=O` (single isomer, unassigned; (-)) [Example 17, (−)-5-(5-(1-hydroxy-1-(pyridin-4-yl)ethyl)thiophen-2-yl)-1-methylpyridin-2(1H)-one] as the molecule, how does the IC50 read?
Answer: Its IC50 is less than 50 nM.

Question: `CCC(O)(c1ccncc1)c1cnc(-c2ccc(F)cc2)s1` (stereo not drawn) [Example 4, 1-(2-(4-fluorophenyl)-thiazol-5-yl)-1-(pyridin-4-yl)propan-1-ol] was tested. Which IC50 did it give?
Answer: The IC50 was 50 to 200 nM.

Question: With `CC(O)(c1ccncc1)c1ncc(-c2ccc(F)cc2)s1` (stereo not drawn) [Example 14, 1-(5-(4-Fluorophenyl)thiazol-2-yl)-1-(pyridin-4-yl)ethanol] as the molecule, how does the IC50 read?
Answer: The IC50 was less than 50 nM.

Question: How did the IC50 turn out when `Cn1cc(-c2ccc(C(C)(O)c3ccncc3)s2)ccc1=O` (stereo not drawn) [Example 15, 5-(5-(1-Hydroxy-1-(pyridin-4-yl)ethyl)thiophen-2-yl)-1-methyl-pyridin-2(1H)-one] was run?
Answer: The IC50 was 50 to 200 nM.

Question: How did the IC50 turn out when `CC(O)(c1ccncc1)c1nc(-c2ccc(F)cc2)no1` (stereo not drawn) [Example 34, 1-(3-(4-Fluorophenyl)-1,2,4-oxadiazol-5-yl)-1-(pyridin-4-yl)ethanol] was run?
Answer: Its IC50 is less than 50 nM.
